The structures appear in SMILES notation. “Also recorded” adds a separate entry of the source.

One data set concerns the target T1, Thioredoxin (Homo sapiens, UniProt P10599).
T1 construct: purchased American Diagnostica, Greenwich, Conn; host or cells: E. coli
The experiment in a line: Inhibition of thioredoxin-mediated reduction of 70 kDa fibronectin fragment. Particulars: 10 μM GSAO, 1 μM thioredoxin, 10 minutes. The format is biochemical. As to the method: FIG. 13. Inhibition of thioredoxin by GSAO. Thioredoxin (1 μM) was incubated with GSAO (0, 1 or 10 μM) for 10 minutes at room temperature in 20 mM Hepes, 0.14 M NaCl, pH 7.4 buffer. The 70 kDa fibronectin fragment (10 μg per mL) was added and incubated for 5 minutes at room temperature. The reactions were labelled with MPB (100 μM) for 10 minutes at 37° C. The MPB was quenched with GSH (200 μM) for 10 minutes at 37° C. followed by iodoacetamide (400 μM) for 10 minutes at room temperature. The MPB-labelled 70 kDa fragment was resolved on 5-15% SDS-PAGE, transferred to PVDF membrane and the MPB detected by blotting with streptavidin peroxidase. The positions of Mr markers are shown at left.
It was observed that thioredoxin reduced one or more protein disulfide bonds in the 70 kDa N-terminal fragment of fibronectin.

The subject of the next data set is Human T cells (A3.01). The experiment in a line: Tritiated GSAO in cytosol (membrane permeability). Format: in vitro ADME. How it is done:
Human T cells (A3.01) or adherent BAE cells were incubated with complete medium containing 50 μM GSAO and ˜100,000 counts per, minute of tritiated GSAO for 1 or 72 hours. Tritiated GSAO was prepared exactly as described for GSAO except that glycine-2-^3H-glutathione (NEN, Boston, Mass.) was used in place of cold glutathione. The cells were washed and lysed by two cycles of freezing and thawing. The cytosolic constituents were collected by differential centrifugation (Ausbel et al., 2000) and the tritiated GSAO was measured. Only 0.5% of the total tritiated GSAO was found in the T cell cytosol and 0.04% in the BAE cytosol after 1 hour. Moreover, only 4.5% of the GSAO penetrated the T cell membrane after 72 hours of culture.

A short description of data set [1]: Stability of the trivalent arsenicals towards oxidation. The format is physicochemical. Particulars: slowed by removal of O2, lower pH or glycine. An excerpt:
This oxidation can be slowed in three ways; removal of dissolved O2 from solutions containing the arsenoxides, lowering the pH of these solutions, or by addition of glycine to the solutions. Glycine is routinely used to prevent oxidation of the stock solutions of the trivalent organoarsenicals. Similar to the reaction between 2,3-dimercaptopropanol and R—As(OH)2 in which a 5-membered dithioarsonite (XI) is formed, reaction of glycine with R—As(OH)2 is thought to give a 5-membered cyclic 1,3,2-oxazarsolidin-5-one (XII).

Another data set concerns A3.01 cells. The experiment in a line: Cell number and cell viability in the HIVIIIB assay. Format: cell-based, human. How it is done:
(§1) FIG. 33. […] Cells were washed and incubated in complete medium at 5% CO2 and 37° C. for up to 10 days. […] B Concentration dependence of GSAO. […] Cells were washed, incubated in complete medium at 5% CO2 and 37° C. for 3 days and the conditioned medium collected and assayed for p24 antigen.
(§2) FIG. 34. Inhibition of HIVIIIB infection of A3.01 cells by GSAO.
(§3) A3.01 human T cells were exposed to GSAO for 30 minutes and then to HTLVIIIB virus for 2 hours after which the cells were washed and then cultured for up to 10 days. HTLVIIIB and A3.01 cells were obtained from the NIH AIDS Research and Reference Reagent Program, Rockville, Mass. Virus stocks were made and infectivity titer determined using A3.01 cells and the p24 antigen assay (Coulter, Miami, Fla.). A3.01 cells were cultured in RPMI medium containing 10% fetal calf serum. […] Cell numbers and cell viability were determined at the times specified by staining cells with trypan blue and counting using a Neubauer haemacytometer. Cell viability was measured as a percentage of live cells to total cells.

Another data set relates to HIVIIIB. The experiment in a line: HIVIIIB entry into / infection of A3.01 cells, p24 antigen. The format is cell-based, HIV. How it is done: as §1, §2, §3
In a further data set the test system is HT1080. The experiment in a line: Viability of cultured cells, 72 hr. The format is cell-based, human. Particulars: 5% FCS, 0 to 1 mM. How it is done: (§4) FIG. 19. Effect of GSAO on proliferation of non-endothelial cells. 15,000 BxPC-3 (part A), HT1080 (part B), 3T3 (part C) or BVSM (part D) cells per well were seeded into gelatinised 24-well culture plates and allowed to attach for 24 hr. The media was then replaced with DMEM containing 0 to 1 mM GSAO or GSAA and either 5% BCS (part D) or 5% FCS (parts A, B and C). Cells were cultured for 72 hr and then dispersed and counted. The dotted lines indicate the cell number in control wells containing DMEM and 2% BCS (part D) or 2% FCS (parts A, B and C) which represented no to limited proliferation. The data points and errors represent the mean and range of duplicate wells.
(§5) BCE (Folkman et al. 1979), BAE, BxPC-3 (ATCC, Bethesda, Md.), HT1080 (Jiang et al., 1999), 3T3 (ATCC, Bethesda, Md.) and BVSM (Hogg et al., 1997) cells were harvested and cultured as indicated. […] Cells were cultured for 0 to 72 hr in 10% CO2 at 37° C. then dispersed in trypsin/EDTA (GibcoBRL, Granc Island, N.Y.), resuspended in Coulter balanced electrolyte solution and counted with a Z1 Coulter counter (Coulter Corp., Miami, Fla.) in all experiments there were two control wells containing DMEM with 1% GPS and either 5% BCS for BCE cells, 2% BCS for BAE and BVSM cells, or 2% FCS for BxPC-3, HT1080 and 3T3 cells. […]

The next data set deals with BxPc3. The experiment in a line: Viability of cultured cells, 72 hr. Format: cell-based, human. The following applies: 5% FCS, 0 to 1 mM. How it is done: as §4, §5
Another data set has as its system BVSM. The experiment in a line: Viability of cultured cells, 72 hr. Particulars: 5% BCS, 0 to 1 mM. Format: cell-based, bovine. As to the method:
as §4, §5

T1 sequence (P10599 whole entry): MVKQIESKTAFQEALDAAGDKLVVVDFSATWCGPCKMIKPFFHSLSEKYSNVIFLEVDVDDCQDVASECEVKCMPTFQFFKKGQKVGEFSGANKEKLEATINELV

Turning to `NC(CCC(=O)NC(CSCC(=O)Nc1ccc([As]=O)cc1)C(=O)NCC(=O)O)C(=O)O` (centres unmarked) [GSAO, 4-(N-(S-glutathionylacetyl)amino)-phenylarsenoxide], the “inhibition of thioredoxin activity” value on Thioredoxin is recorded as “completely inhibited”. For the same compound, in the data set on Human T cells (A3.01) (50 μM GSAO, 1 hour), the “total tritiated GSAO found in the cytosol” value was determined as 0.5%. For the same compound, in the data set with Human T cells (A3.01) (50 μM GSAO, 72 hours of culture), the “GSAO that penetrated the T cell membrane” value is reported as 4.5%. The “crossing of the plasma membrane” value with Human T cells (A3.01) (A3.01 or BAE cells) is listed as “does not cross the plasma membrane to any significant extent”. In addition, in data set [1], the “stability of solutions towards oxidation” value is listed as “deactivated over time by oxidation”. In the data set on A3.01 cells (10 μM in the culture medium), the “effect on cell proliferation” value is “small inhibitory effect on cell proliferation” and the “effect on cell viability” value was “no effect on cell viability”. The “effect on cell proliferation or cell viability” value in the data set on A3.01 cells (up to 100 μM, pre-incubation only) is reported as “no effect on cell proliferation or cell viability”. Further, in the data set on HIVIIIB (10 μM, also in the culture medium), the “HIVIIIB infection of A3.01 cells” value was “effectively blocked”. Moreover, the “inhibition of HIVIIIB entry” value in the data set on HIVIIIB (100 μM, 30 minutes before virus) is on record as “Inhibition of HIVIIIB entry; also recorded: inhibited entry”. Also, the IC50 in the data set on HIVIIIB (Human immunodeficiency virus 1, read-out: half-maximal effect on HIVIIIB entry) was ~1 µM.

With `N[C@@H](CCC(=O)N[C@@H](CSCC(=O)Nc1ccc([As](=O)(O)O)cc1)C(=O)NCC(=O)O)C(=O)O` [GSAA, 4-(N-(S-glutathionylacetyl)amino)phenylarsonic acid, reference compound], the “Viability IC50” value in the data set with HT1080, in the data set on BxPc3 and in the data set on BVSM was “no significant effect” each time.

Source of the values: patent publication US7498406B2, “Substantially cell membrane impermeable compound and use thereof” (priority 1999, dated 2009).
